# Laboratory results: patent EP3714904B1, “IMINODIACETIC ACID SUBSTITUTED CYCLODEXTRINS AS POTENTIATORS OF BETA-LACTAM ANTIBIOTICS” (NATIONAL CENTER FOR SCIENTIFIC RESEARCH "DEMOKRITOS" (NCSRD), priority 2019, dated 2020)
# How the values were obtained:
# [1] = system: Acinetobacter baumannii; experiment: MIC of β-lactams alone or with 50 µM IDACYD against clinical isolates; type: cell-based
# Protocol: (§1) Further the in-vitro inhibitory activity of IDACYDs was tested against highly resistant pathogens. Tables 3, 4 and 5 show the effect of IDACYDs using a collection of 36 highly resistant Gram negative strains (Table 2, Kirby-Bauer disc diffusion method) producing NDM, VIM and IMP type MBLs as well as 6 isolates expressing serine beta-lactamases (ESBLs, AmpCs). […] Clinical isolates co-expressing ESBLs and/or AmpC β-lactamases along with MBLs where re-sensitized to both imipenem and meropenem, as expected. Table 2: Collection of clinical isolates used for in-vitro evaluation
# [2] = system: Serratia marcescens; experiment: as above; type: cell-based; conditions: isolate EUG-815 (VIM, CMY)
# Protocol: as §1
# [3] = system: Escherichia coli; experiment: as above; type: cell-based
# Protocol: as §1
# [4] = system: Proteus mirabilis; experiment: as above; type: cell-based
# Protocol: as §1
# [5] = system: Providencia stuartii; experiment: as above; type: cell-based
# Protocol: as §1
# [6] = system: Enterobacter gergoviae; experiment: as above; type: cell-based
# Protocol: as §1
# [7] = system: NDM-1 producing K. pneumoniae clinical strain LA 26; experiment: Murine sepsis model: single dose treatment scheme-1; type: in vivo, CD-1 mice; conditions: single dose 30 mg/kg meropenem + 120 mg/kg β-IDACYD
# Protocol: Example 8. In-vivo murine sepsis model: Single dose treatment scheme-1: Neutropenic 7-8 weeks old CD-1 female mice weighing 29 to 32 grams were infected interperitoneally with a lethal dose (10^7 CFU) of the NDM-1 producing K. pneumoniae clinical strain LA 26 as described previously. […] The meropenem/ β-IDACYD combination was administrated in all dosing schemes simultaneously. Blood samples were taken 0, 6, 24 hours and 3 days after injection of a single dose of antibiotic (five infected animals for each timepoint) and were serially diluted in normal saline (10^-1 to 10^-9) and plated on MH agar plates which were incubated for 16 hours at 37 °C for determination of viable organisms. All mice were euthanised 3 days post infection and spleen and liver were harvested. Organs were placed into 1 mL of normal saline on ice and then homogenised. Organ homogenates were then serially diluted in normal saline (10^-1 to 10^-9) and plated on MH agar plates for CFU enumeration. In the absence of therapy 30% of mice remained alive 70 hours post infection. […] The bacterial burden in the blood 70 hours post treatment was relieved by 4.8log10 in the presence of 120 mg/kg of β-IDACYD compared to that of the antibiotic monotherapy. […] In Fig. 7 is shown the bacterial load (CFU/mL) and survival percentage of CD-1 mice infected with a lethal dose (10^7 CFU) of NDM-1 producing K. pneumoniae strain LA26. […] Treatment was given in a form of a single shot 2h after infection and blood was drawn 0h, 6h, 24h and 70h post treatment initiation. All groups were of n=10. Error bars are indicative of SEM (n=2 replicates).
# [8] = biological target: T1, MBL containing crude enzyme preparation (Kpn LA-26 NDM-1) (Klebsiella pneumoniae, UniProt C7C422); experiment: 1H NMR monitoring of meropenem hydrolysis by MBL crude enzyme preparation; type: biochemical; conditions: meropenem 0.18 mM, β-IDACYD 1.9 mM, over a 12 h period
# T1 construct: an MBL containing crude enzyme preparation (Kpn LA-26 NDM-1, 485 µL); endogenous in cells; host or cells: Klebsiella pneumoniae clinical strain LA-26 (crude enzyme preparation)
# [9] = system: Klebsiella pneumoniae; experiment: MIC of β-lactams alone or with 50 µM IDACYD against clinical isolates; type: cell-based
# Protocol: Further the in-vitro inhibitory activity of IDACYDs was tested against highly resistant pathogens. […] Table 2: Collection of clinical isolates used for in-vitro evaluation
# T1 sequence (C7C422 29-270 limits assumed): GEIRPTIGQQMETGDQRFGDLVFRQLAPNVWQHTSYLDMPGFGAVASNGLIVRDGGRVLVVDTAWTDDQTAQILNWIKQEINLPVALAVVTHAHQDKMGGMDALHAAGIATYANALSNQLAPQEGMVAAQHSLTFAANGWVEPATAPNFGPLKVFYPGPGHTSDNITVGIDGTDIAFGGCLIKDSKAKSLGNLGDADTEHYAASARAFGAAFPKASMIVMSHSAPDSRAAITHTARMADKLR
compound,measurement,setting,value
CO[C@@H]1[C@@H](OC)[C@H]2O[C@H]3[C@H](OC)[C@@H](OC)[C@@H](O[C@H]4[C@H](OC)[C@@H](OC)[C@@H](O[C@H]5[C@H](OC)[C@@H](OC)[C@@H](O[C@H]6[C@H](OC)[C@@H](OC)[C@@H](O[C@H]7[C@H](OC)[C@@H](OC)[C@@H](O[C@H]8[C@H](OC)[C@@H](OC)[C@@H](O[C@@H]1[C@@H](CN(CC(=O)O)CC(=O)O)O2)O[C@@H]8CN(CC(=O)O)CC(=O)O)O[C@@H]7CN(CC(=O)O)CC(=O)O)O[C@@H]6CN(CC(=O)O)CC(=O)O)O[C@@H]5CN(CC(=O)O)CC(=O)O)O[C@@H]4CN(CC(=O)O)CC(=O)O)O[C@@H]3CN(CC(=O)O)CC(=O)O [β-IDACYD],Imipenem /50µM β-IDACYD MIC,"[1]; isolate TZAN-40 (VIM, OXA-58)",0.25 µg/mL
same,Meropenem /50µM β-IDACYD MIC,"[1]; isolate TZAN-40 (VIM, OXA-58)",2 µg/mL
same,Imipenem /50µM β-IDACYD MIC,"[1]; isolate TZAN-42 (VIM, OXA-58)",2 µg/mL
same,Meropenem /50µM β-IDACYD MIC,"[1]; isolate TZAN-42 (VIM, OXA-58)",8 µg/mL
same,Ceftazidime/ 50µM β-IDACYD MIC,[2],<0.25 µg/mL
same,Imipenem /50µM β-IDACYD MIC,[2],<0.125 µg/mL
same,Meropenem /50µM β-IDACYD MIC,[2],<0.25 µg/mL
same,Ceftazidime/ 50µM β-IDACYD MIC,[3]; isolate TZAN-116 (VIM),<0.25 µg/mL
same,Imipenem /50µM β-IDACYD MIC,[3]; isolate TZAN-116 (VIM),<0.125 µg/mL
same,Meropenem /50µM β-IDACYD MIC,[3]; isolate TZAN-116 (VIM),<0.25 µg/mL
same,Imipenem /50µM β-IDACYD MIC,[3]; isolate TZAN-541 (VIM),<0.125 µg/mL
same,Meropenem /50µM β-IDACYD MIC,[3]; isolate TZAN-541 (VIM),<0.25 µg/mL
same,Imipenem /50µM β-IDACYD MIC,"[4]; isolate ALX-13 (VIM, VEB)",1 µg/mL
same,Meropenem /50µM β-IDACYD MIC,"[4]; isolate ALX-13 (VIM, VEB)",0.5 µg/mL
same,Imipenem /50µM β-IDACYD MIC,"[4]; isolate ESDY-17 (VIM, CMY)",<0.125 µg/mL
same,Meropenem /50µM β-IDACYD MIC,"[4]; isolate ESDY-17 (VIM, CMY)",<0.25 µg/mL
same,Ceftazidime/ 50µM β-IDACYD MIC,"[4]; isolate ESDY-15184 (VIM, CMY)",<0.25 µg/mL
same,Imipenem /50µM β-IDACYD MIC,"[4]; isolate ESDY-15184 (VIM, CMY)",0.125 µg/mL
same,Meropenem /50µM β-IDACYD MIC,"[4]; isolate ESDY-15184 (VIM, CMY)",<0.25 µg/mL
same,Imipenem /50µM β-IDACYD MIC,"[4]; isolate ESDY-15315 (VIM, CMY)",<0.125 µg/mL
same,Meropenem /50µM β-IDACYD MIC,"[4]; isolate ESDY-15315 (VIM, CMY)",<0.25 µg/mL
same,Ceftazidime/ 50µM β-IDACYD MIC,"[5]; isolate ALX- 21 (VIM, VEB)",16 µg/mL
same,Imipenem /50µM β-IDACYD MIC,"[5]; isolate ALX- 21 (VIM, VEB)",0.25 µg/mL
same,Meropenem /50µM β-IDACYD MIC,"[5]; isolate ALX- 21 (VIM, VEB)",<0.25 µg/mL
same,Imipenem /50µM β-IDACYD MIC,[5]; isolate ALX-27 (VIM),<0.125 µg/mL
same,Meropenem /50µM β-IDACYD MIC,[5]; isolate ALX-27 (VIM),<0.25 µg/mL
same,Ceftazidime/ 50µM β-IDACYD MIC,[5]; isolate ESDY-4559 (VIM),<0.25 µg/mL
same,Imipenem /50µM β-IDACYD MIC,[5]; isolate ESDY-4559 (VIM),<0.125 µg/mL
same,Meropenem /50µM β-IDACYD MIC,[5]; isolate ESDY-4559 (VIM),<0.25 µg/mL
same,Imipenem /50µM β-IDACYD MIC,"[5]; isolate ESDY-4563 (VIM, VEB)",<0.125 µg/mL
same,Meropenem /50µM β-IDACYD MIC,"[5]; isolate ESDY-4563 (VIM, VEB)",<0.25 µg/mL
same,Imipenem /50µM β-IDACYD MIC,"[6]; isolate AK-5227 (VIM, CMY)",1 µg/mL
same,Meropenem /50µM β-IDACYD MIC,"[6]; isolate AK-5227 (VIM, CMY)",<0.25 µg/mL
same,Imipenem /50µM β-IDACYD MIC,"[6]; isolate AK-5240 (VIM, CMY)",<0.125 µg/mL
same,Meropenem /50µM β-IDACYD MIC,"[6]; isolate AK-5240 (VIM, CMY)",<0.25 µg/mL
same,reduction of bacterial load in the liver,[7],1.4 log10
same,reduction of bacterial load in the spleen,[7],3.8 log10
same,mice rescued (survival),[7]; 70 hours,60%
same,reduction of bacterial burden in the blood compared to antibiotic monotherapy,[7]; 70 hours post treatment,4.8 log10
same,hydrolysis of meropenem in the presence of β-IDACYD,[8],no signals of hydrolysis of the drug could be observed
same,Imipenem /50µM β-IDACYD MIC,[9]; isolate 6/100 (VIM),1 µg/mL
same,Meropenem /50µM β-IDACYD MIC,[9]; isolate 6/100 (VIM),1 µg/mL
same,Imipenem /50µM β-IDACYD MIC,[9]; isolate 2489 (NDM),0.5 µg/mL
same,Meropenem /50µM β-IDACYD MIC,[9]; isolate 2489 (NDM),1 µg/mL
same,Imipenem /50µM β-IDACYD MIC,"[9]; isolate 2685 (VIM, CMY, CTXM)",0.5 µg/mL
same,Meropenem /50µM β-IDACYD MIC,"[9]; isolate 2685 (VIM, CMY, CTXM)",<0.25 µg/mL
same,Ceftazidime/ 50µM β-IDACYD MIC,"[9]; isolate ALX-47 (OXA-48,CTX-M)",>256 µg/mL
same,Imipenem /50µM β-IDACYD MIC,"[9]; isolate ALX-47 (OXA-48,CTX-M)",4 µg/mL
same,Meropenem /50µM β-IDACYD MIC,"[9]; isolate ALX-47 (OXA-48,CTX-M)",4 µg/mL
same,Imipenem /50µM β-IDACYD MIC,"[9]; isolate ESDY-1780 (VIM, KPC)",8 µg/mL
same,Meropenem /50µM β-IDACYD MIC,"[9]; isolate ESDY-1780 (VIM, KPC)",32 µg/mL
same,Imipenem /50µM β-IDACYD MIC,[9]; isolate ESDY-2681 (VIM-27),<0.125 µg/mL
same,Meropenem /50µM β-IDACYD MIC,[9]; isolate ESDY-2681 (VIM-27),<0.25 µg/mL
same,Ceftazidime/ 50µM β-IDACYD MIC,[9]; isolate ESDY-5742 (IMP),1 µg/mL
same,Imipenem /50µM β-IDACYD MIC,[9]; isolate ESDY-5742 (IMP),<0.125 µg/mL
